Laboratory results taken from US20220296573A1, “NOVEL COMPOUNDS AND PHARMACEUTICAL COMPOSITIONS THEREOF FOR THE TREATMENT OF INFLAMMATORY DISORDERS” (Galapagos NV, priority 2019, published 2022).

Target: T1, human IRAK-4 (Homo sapiens, UniProt Q9NWZ3)
T1 construct: purchased Carna Biosciences 09 145
T1 sequence (Q9NWZ3 1-460): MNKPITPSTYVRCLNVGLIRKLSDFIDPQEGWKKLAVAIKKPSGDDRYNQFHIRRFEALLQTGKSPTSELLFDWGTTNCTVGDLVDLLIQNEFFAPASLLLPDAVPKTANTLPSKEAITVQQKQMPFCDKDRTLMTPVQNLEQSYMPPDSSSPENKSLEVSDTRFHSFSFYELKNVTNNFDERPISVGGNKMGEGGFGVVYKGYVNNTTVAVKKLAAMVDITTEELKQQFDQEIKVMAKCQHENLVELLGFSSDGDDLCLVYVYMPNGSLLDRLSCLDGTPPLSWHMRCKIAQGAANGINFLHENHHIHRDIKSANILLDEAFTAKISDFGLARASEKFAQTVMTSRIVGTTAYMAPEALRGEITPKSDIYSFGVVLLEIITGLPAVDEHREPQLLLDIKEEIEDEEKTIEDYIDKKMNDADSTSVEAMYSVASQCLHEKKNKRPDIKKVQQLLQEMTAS
Assay: Phosphorylation IC50 determination for human IRAK-4 (ADP-Glo Kinase Assay)
Details: human IRAK-4, substrate RIP140, Km ATP; read-out: IRAK4 ADPglo biochemical assay IC50
Experimental: The phosphorylation of the substrate RIP140 (SEQ ID1) by IRAK4 at Km ATP was detected with the ADP-Glo Kinase Assay (Promega, Cat #V9103), a luminescent kinase assay which measures the ADP formed from a kinase reaction. (Zegzouti et al. 2009) In a second step the kinase reaction was terminated and all the remaining ATP was depleted. In a final step the ADP was converted into ATP and this newly synthesized ATP was measured by using a luciferase/luciferin reaction with a luminescent reader. The luminescent signal positively correlated with kinase activity, in particular kinase inhibition giving a decrease of the luminescent signal.
For the semi-automated assay, the positive control (100% inhibition) was prepared by diluting 10 mM staurosporine stock mixture (20 μL) in water (3.8 mL) and DMSO (180 μL), thus resulting in a […] staurosporine solution at 1% DMSO (final concentration after further dilution in the kinase reaction).
For the automated assay, no pre-dilution of the 10 mM staurosporine stock was made. 10 mM staurosporine was spotted directly in the assay plate using acoustic dispensing and complemented with DMSO to result in a similar final concentration as mentioned above.
For the semi-automated assay, the negative control (0% inhibition) was prepared by mixing water (3.8 mL) and DMSO (200 μL) resulting in a final concentration of 1% DMSO after further dilution in the kinase reaction. For the automated assay no pre-dilution of DMSO was done. 100% DMSO was spotted directly on the assay plate.
The assay buffer solution was prepared at a concentration corresponding to 5 fold the final (most diluted) assay concentration by mixing a solution of 125 mM TRIS pH 7.5+0.05% Triton X-100+2.5 mM EGTA (5.27 mL) with 1M mgCl2 (72 μL), 1M DTT (57.6 μL), and 200 mM MnCl2 (360 μL).
For example, for the semi-automated method, the enzyme-substrate mixture was prepared by mixing water (3999 μL), assay buffer solution (1380 μL), 1 mM RIP140 (138 μL—SEQ ID1), and 200 ng/mL IRAK 4 (3.45 μL Carna Biosciences, 09 145).
For semi-automated method, the ATP mixture was prepared at a concentration corresponding to 2.5 fold the final (most diluted) assay concentration of the semi-automated method and 1.5 fold the final (most diluted) assay concentration of the automated method. For example, for the semi-automated method, the ATP mixture was prepared by mixing water (4126 μL), assay buffer solution (1380 μL), and 10 mM ATP (13.80 μL).
The assay are performed either in a semi-automated or fully automated manner. The assay volume and the incubation time of the ADP detection were different accordingly the method used.
The compounds were prepared as a serial dilution of 10 point dose responses with 1/5 dilution steps in 100% DMSO starting from 2 mM highest concentration, diluted 1/20 in water. 1 μL was transferred dry to the assay plates.
On each assay plate 32 wells of each control (positive & negative) were added, followed by 2 μL enzyme-substrate mixture.
The reaction was started by adding 2 μL diluted ATP (final concentration Km ATP) on the assay plates. Plates were centrifuged for a few seconds at 1000 rpm followed by an incubation at r.t. for 120 min.
The reactions were stopped and the unconsumed ATP was depleted by adding 5 μL ADP-glo Reagent (Promega, Cat #V9103) to the reaction. The plates were quickly centrifuged at 1000 rpm and incubated at r.t. for 40 min corresponding to full ATP depletion.
The ADP was converted back to ATP and luciferase and luciferin were introduced to detect ATP by adding 10 μL kinase detection reagent (Promega, Cat #V9103) to the reaction. The plates were centrifuged for a few seconds at 1000 rpm and incubated at r.t. for a further 30 min.
Luminescent read out was performed on an Envision luminescent reader (Perkin Elmer).
For the automated assay, the compounds were prepared as a serial dilution of 10 point dose responses with 1/5 dilution steps in 100% DMSO starting from 2 mM highest concentration. […]

Row | Structure (SMILES) | IC50
1 | COc1cc2nc(C3COCCO3)cn2cc1NC(=O)c1cccn(C2CCC2)c1=O (stereo not shown) [Compound 5, 1-cyclobutyl-N-[2-(1,4-dioxan-2-yl)-7-methoxy-imidazo[1,2-a]pyridin-6-yl]-2-oxo-pyridine-3-carboxamide] | 10 to 50 nM
2 | COc1cc2nc(C3CCOCC3)cn2cc1NC(=O)c1cccn(C2CC2)c1=O [Compound 3, (1-cyclopropyl-N-[7-methoxy-2-(oxan-4-yl)imidazo[1,2-a]pyridin-6-yl]-2-oxopyridine-3-carboxamide)] | 5 to 10 nM
3 | COc1cc2nc(C3CCOCC3)cn2cc1NC(=O)c1cccc(C(F)(F)F)n1 [Compound 2, N-(7-methoxy-2-tetrahydropyran-4-yl-imidazo[1,2-a]pyridin-6-yl)-6-(trifluoromethyl)pyridine-2-carboxamide] | 10 to 50 nM
4 | COc1cc2nc(C3COCCO3)cn2cc1NC(=O)c1cccn(C2CC2)c1=O (racemic) [Compound 1, 1-cyclopropyl-N-[2-(1,4-dioxan-2-yl)-7-methoxy-imidazo[1,2-a]pyridin-6-yl]-2-oxo-pyridine-3-carboxamide] | 5 to 10 nM
5 | COc1cc2nc(C3COCCO3)cn2cc1NC(=O)c1cccn(C2CC2)c1=O (single isomer, unassigned) [Compound 7, 1-cyclopropyl-N-[2-(1,4-dioxan-2-yl)-7-methoxy-imidazo[1,2-a]pyridin-6-yl]-2-oxo-pyridine-3-carboxamide] | 5 to 10 nM
6 | NC(=O)c1cc2nc(C3COCCO3)cn2cc1NC(=O)c1cccc(C(F)(F)F)n1 (stereo not shown) [Compound 6, 2-(1,4-dioxan-2-yl)-6-[[6-(trifluoromethyl)pyridine-2-carbonyl]amino]imidazo[1,2-a]pyridine-7-carboxamide] | 5 to 10 nM

Next, values leading:

Row | IC50 | Structure (SMILES)
7 | 5 to 10 nM | COc1cc2nc(C3COCCO3)cn2cc1NC(=O)c1cccn(C2CC2)c1=O (single isomer, unassigned) [Compound 8, 1-cyclopropyl-N-[2-(1,4-dioxan-2-yl)-7-methoxy-imidazo[1,2-a]pyridin-6-yl]-2-oxo-pyridine-3-carboxamide]
8 | 5 to 10 nM | CNC(=O)c1cc2nc(C3COCCO3)cn2cc1NC(=O)c1cccc(C(F)(F)F)n1 (stereo not shown) [Compound 9, 2-(1,4-dioxan-2-yl)-N-methyl-6-(6-(trifluoromethyl)picolinamido)imidazo[1,2-a]pyridine-7-carboxamide]
9 | 0.1 to 5 nM | COc1cc2nc(C3CCS(=O)(=O)CC3)cn2cc1NC(=O)c1cccn(C2CC2)c1=O [Compound 23, 1-cyclopropyl-N-(2-(1,1-dioxidotetrahydro-2H-thiopyran-4-yl)-7-methoxyimidazo[1,2-a]pyridin-6-yl)-2-oxo-1,2-dihydropyridine-3-carboxamide]
10 | 5 to 10 nM | CC(F)(F)c1cccc(C(=O)Nc2cn3cc(C4COCCO4)nc3cc2C(N)=O)n1 (stereo not shown) [Compound 11, 6-(6-(1,1-difluoroethyl)picolinamido)-2-(1,4-dioxan-2-yl)imidazo[1,2-a]pyridine-7-carboxamide]
